Laboratory results: patent publication US20210100834A1, “COMPOSITION CONTAINING A CHLORIDE SALT FOR USE IN PREGNANT ANIMALS” (Nutreco IP Assets B.V., priority 2017, published 2021)

Test system: pregnant sows
Experiment: Drinking water treatment of pregnant sows with calcium chloride and phosphoric acid, perinatal phenomena
Assay type: in vivo
Experimental: In another experiment, cations and anions were added to drinking water in such a balance, that the daily cation/anion balance of diet plus drinking water was reduced. For this, the drinking water contained 1.5 g calcium chloride per liter. […] In this experiment, next to the calcium chloride to reduce the daily cation/anion balance, a calcium binder (phosphoric acid, PhA)) was added in a concentration of 0.01 mol/liter.
It is believed that binding of dietary calcium in the gut and the inherent effect of reducing the amount of calcium available to the animal has as a consequence that the animal is triggered to mobilise calcium from its own mineral reserves in the bones. Therefore, when demand for calcium is increased as in parturition, the animal is more prepared to face this demand, and better equipped to maintain blood Ca levels.

## O=P(O)(O)O [PhA, phosphoric acid]
In vivo
  Postnatal mortality: 9.4%
  effect of addition of calcium binder on perinatal mortality: no negative effect
Treated drinking water
  Piglets with colostrum intake <250 g/24 h: 15.1%
Treated drinking water, calculated from weight gain
  Average colostrum intake per piglet: 408 g/24 h
